Laboratory results from patent US20220323405A1, “COMBINATION PRODUCT USING 3,4-METHYLENEDIOXYMETHAMPHETAMINE AND […] THE TREATMENT OF […] DISORDERS” (Universitätsspital Basel, priority 2021, published 2022).
Read-outs that look alike come from different tables or passages of the source.

Experiments:
[1] = test system: humans; details: cited from earlier work
[2] = test system: rats; details: cited from earlier work
[3] = test system: healthy subjects; details: non-ambulating persons, 1.5-4 hours after administration vs placebo; p<0.001; cited from earlier work
[4] = test system: healthy humans; assay: Modeled co-administration of carvedilol with MDMA at the same time (estimates from pre-administration data); set-up: species or system human
Source text: FIGS. 11A-11C are graphs showing effects of MDMA alone, carvedilol alone, carvedilol prior to MDMA and carvedilol co-administered with MDMA at the same time (modeled data) on systolic (FIG. 11A), diastolic (FIG. 11B), and mean arterial blood pressure (FIG. 11C) in healthy humans; and
FIGS. 12A-12B are graphs showing effects of MDMA alone, carvedilol alone, carvedilol prior to MDMA and carvedilol co-administered with MDMA at the same time (modeled data) on heart rate (FIG. 12A) and body temperature (FIG. 12B) in healthy humans.
Therefore, the present invention further developed the carvedilol-pre-dosing approach into a simultaneous dosing approach. The study provided the information on the effects of carvedilol alone, and MDMA alone.
For blood pressure and heart rate the effects of carvedilol given simultaneously with MDMA were therefore estimated using the carvedilol and placebo mean values for each measured time point after administration and the mean carvedilol-placebo effect difference was calculated and then subtracted from the MDMA-placebo difference (FIGS. 11A-11C).
FIGS. 11A-11C and 12A-12B illustrate the beneficial effect of the present invention using co-administration of the adverse effect-reducing agent (carvedilol) and the empathogen/entactogen (MDMA). If carvedilol is administered before MDMA (carvedilol prior MDMA condition) as in the past study (Hysek et al., 2012a), a drop in blood pressure and heart rate can be observed in FIGS. 11A-11C and 12A-12B prior to the MDMA administration and consistent with the effect of carvedilol alone.
The graphical illustrations (FIGS. 11A-11C and 12A-12B) are based on estimates and modeling using existing data from the pre-administration of carvedilol. However, it is clear from illustrations FIGS. 11A-11C and 12A-12B that the invention provides an effective approach to reduce MDMA-induced cardiostimulant effects.

[5] = test system: healthy human subjects; details: MDMA 125 mg vs placebo, cited from earlier work
[6] = test system: humans; details: carvedilol 50 mg; cited from earlier work
[7] = test system: healthy subjects; details: cited from earlier work
[8] = test system: healthy subjects; details: doxazosin 8 mg/d for 3 days before MDMA 125 mg; cited from earlier work
[9] = humans, after MDMA vs after pindolol-MDMA
[10] = carvedilol 50 mg 1 hour before MDMA 125 mg
[11] = carvedilol 50 mg 1 hour before MDMA 125 mg, listed as Carvedilol

**Q.** Which “Effect on MDMA-induced increase in body temperature” value ([1]; pindolol pretreatment) does the source give for `CC(C)NCC(O)COc1cccc2[nH]ccc12` (stereo not shown) [pindolol] here?
**A.** no effect

**Q.** What about the “Effect on adverse effects of MDMA” value ([1]; pindolol pretreatment) of the same compound?
**A.** did not change

**Q.** For `CNC(C)Cc1ccc2c(c1)OCO2` (stereo not shown) [MDMA, 3,4-methylenedioxymethamphetamine], which Norepinephrine levels [2] is on record?
**A.** induced

**Q.** And the “Peak mean arterial blood pressure (MAP) values” [1, 9]?
**A.** 115±11 mm Hg

**Q.** What about the “Peak values (mean±SD) for heart rate” value [1, 9] of the same compound?
**A.** 84±13 beats/minute

**Q.** And the Body temperature [3]?
**A.** elevated

**Q.** What about the “Body temperature (FIG. 12B)” value ([4]; MDMA alone) of the same compound?
**A.** slightly increases

**Q.** What about the “Diastolic and systolic blood pressure” value [5] of the same compound?
**A.** significantly increased

**Q.** What about the Heart rate [5] of the same compound?
**A.** significantly increased

**Q.** What about the Pupil size [5] of the same compound?
**A.** significantly increased

**Q.** And the Rate pressure product [5]?
**A.** significantly increased

**Q.** And the Body temperature ([5]; tympanic)?
**A.** significantly increased

**Q.** With `COc1ccccc1OCCNCC(O)COc1cccc2[nH]c3ccccc3c12` (stereo not shown) [carvedilol] as the compound, how does the “Effect on established MDMA-induced hyperthermia” value ([2]; administered 1 hour after MDMA) read?
**A.** completely reversed

**Q.** And the “Effect on MDMA-induced hyperthermic (thermogenic) response” value ([2]; administered before or after MDMA)?
**A.** prevented

**Q.** And the “Effect on smoked cocaine-induced increases in heart rate and blood pressure” value [6]?
**A.** attenuate

**Q.** And the “Effect on MDMA-induced elevations in blood pressure” value [7, 10]?
**A.** effectively reduced

**Q.** What about the “Effect on MDMA-induced elevations in body temperature” value [7, 10] of the same compound?
**A.** reduced

**Q.** And the “Effect on MDMA-induced elevations in heart rate” value [7, 10]?
**A.** effectively reduced

**Q.** And the “Effect on plasma exposure to MDMA” value [7, 10]?
**A.** did not alter

**Q.** What about the “Effect on subjective effects of MDMA (good drug effects, drug liking)” value [7, 10] of the same compound?
**A.** did not alter

**Q.** What about the “Effect on MDMA-induced elevations in blood pressure” value [7, 11] of the same compound?
**A.** reduced

**Q.** And the “Effect on MDMA-induced elevations in heart rate” value [7, 11]?
**A.** reduced

**Q.** What about the “Effect on subjective effects of MDMA (good drug effects, drug liking)” value [7, 11] of the same compound?
**A.** did not affect

**Q.** What about the “Blood pressure and heart rate prior to the MDMA administration” value ([7]; carvedilol prior MDMA condition) of the same compound?
**A.** drop

**Q.** What about the “Effect on MDMA-induced increase in body temperature (FIG. 12B)” value ([4]; carvedilol administered prior to MDMA and with MDMA, modeled data) of the same compound?
**A.** reduce

**Q.** And the “Effect on MDMA-induced increase in heart rate and blood pressure” value ([4]; carvedilol with MDMA at the same time, modeled data)?
**A.** reduce the MDMA effect effectively and similarly

**Q.** Which results are given for `COc1cc2nc(N3CCN(C(=O)C4COc5ccccc5O4)CC3)nc(N)c2cc1OC` (stereo not shown) [Doxazosin, doxazosin]?
**A.** Effect on MDMA-induced elevations in blood pressure [8]: reduced; Effect on MDMA-induced elevations in body temperature [8]: reduced
